Measured values: publication PMC11078216, “Discovery of potent and selective activity-based probes (ABPs) for the deubiquitinating enzyme USP30” (RSC Chemical Biology, 2024)
Blank lines part the entries; values can stand above or below the compound they belong to.

Experiments:
Test in all cases: ABPP chemical proteomics (LC-MS/MS) in HEK293T cells
Format in all cases: cell-based
ALYREF = biological target: T1, ALYREF (Homo sapiens, UniProt Q86V81); conditions: IMP-2586 labelling vs DMSO, 30 nM, 10 min, HEK293T (Table S4, Fig.5c)
T1 construct: endogenous in cells; host or cells: HEK293T
Experimental: (§1) To explore the selectivity of IMP-2587 and IMP-2586 across the whole proteome, we performed quantitative activity-based protein profiling (ABPP) in HEK293T cells following treatment with IMP-2587 or IMP-2586 (Fig. 3a). After ABP incubation, cells were lysed, and probe-labelled proteins were ligated to biotinylated capture reagents.[27] […] USP30 was outcompeted by corresponding parent inhibitors for each ABP (Fig. 5b and d and Tables S3 and S5, ESI ^†), confirming the high potency and rapid engagement of IMP-2587 and IMP-2586 in cells. […] DESI1 and DESI2 are small ubiquitin-related modifier (SUMO) proteases,[3,29–32] and IMP-2587 and IMP-2586 may offer a starting point for future development of DESI ABPs. […]
(§2) d) Live cell probe incubation, lysate click chemistry and precipitation 6-well HEK293T cells were incubated with media containing compounds ABP 2 and ABP 4 at indicated concentrations for 1 h at 37 °C. The cells were washed with PBS and lysed with lysis buffer (50 μL (1% (v/v) Triton X-100, 0.1% (w/v) sodium dodecyl sulfate (SDS), EDTA-free complete protease inhibitor cocktail (1×, Roche) in PBS on ice for 10 min. The lysates were scraped and transferred to corresponding Lo-Bind Eppendorfs. Each lysate was sonicated for 1 minute, and the samples centrifuges at 5,000 x g at 4 °C for 5 minutes to pellet insoluble cellular debris. The supernatant was collected, and protein concentration was determined using the DC Protein Assay (Bio-Rad) as per manufacturer’s instructions, and normalised to lowest concentrated sample (e.g. 1 mg/mL, using lysis buffer). The following “click mixture” was prepared separately, preparing 6 μL for every 100 μL of […]
(§3) Capture reagent (AzRB/AzT for ABP 2, YnT/YnB for ABP 4 10 mM in DMSO, 1 vol; final concentration […]
(§4) CuSO4 (50 mM in water, 2 vol; final concentration in reaction 1 mM)
(§5) TCEP (50 mM in water, 2 vol; final concentration in reaction 1 mM)
(§6) TBTA (10 mM in DMSO, 1 vol; final concentration in reaction 100 µM)
(§7) The click mixture was vortexed and incubated at room temperature for 2 min before 6 μL of the mixture was added to every 100 μL of lysate. The reaction mixtures were shaken at room temperature for 1 h before being quenched with EDTA (500 mM in H2O) to a final concentration of 10 mM.
(§8) Proteins were precipitated by adding H2O (1 vol), MeOH (2 vol) and CHCl3 (0.5 vol), vortexing briefly then centrifuging at 17,000 × g for 5 min. The top H2O/MeOH layer was discarded and the middle layer of protein pellet and lower CHCl3 layer retained. The suspension was washed with MeOH (300 μL), and sonicated to break up the pellet. The proteins were pelleted by centrifugation at 10,000–17000 × g for 5–10 min or until a compact pellet was formed. The protein pellet was washed once more with MeOH (1 mL). The pellet was resuspended by sonicating and completely dissolving in 1% (w/v) SDS in PBS (to 5 mg/mL protein) before being made up to 1 mg/mL protein with PBS.
(§9) The lysate samples (10-20 μg) were mixed with 4× Laemmli sample loading buffer (250 mM Tris -HCl pH 6.8, 30% (v/v) glycerol, 10% (w/v) SDS, 0.05% (w/v) bromophenol blue) supplemented with 20% v/v β-mercaptoethanol (BME) and boiled for 10 min at 95 °C. The resulting protein samples were separated according to the protocol in section 3.2.c. Gel were imaged on a Typhoon imager (GE Healthcare; λEx 532 nm, λEm 575 nm for TAMRA. For protein loading quantification, gels were stained with Coomassie blue staining solution overnight, rinsed with water and imaged on an ImageQuant™ LAS 4000 imager (GE Healthcare). f) Neutravidin biotin enrichment (Affinity pull-down)
(§10) Click chemistry and precipitation steps were carried out as described in section 3.2.d, on at least 400ug of protein per sample. The pellet was resuspended by sonicating and completely dissolving in 1% (w/v) SDS in HEPES 50 mM pH 8.0, before being made up to 1 mg/mL protein with HEPES 50 mM pH 8.0 to […]
(§11) achieve a final concentration of 0.2% SDS. 20uL of each samples was collected as TL (Total lysate) […]
(§12) samples. […]

HSDL1 = biological target: T2, HSDL1 (Homo sapiens, UniProt Q3SXM5); conditions: IMP-2586 labelling vs DMSO, 30 nM, 10 min, HEK293T (Table S4, Fig.5c)
T2 construct: endogenous in cells; host or cells: HEK293T
T2 sequence (Q3SXM5 whole entry): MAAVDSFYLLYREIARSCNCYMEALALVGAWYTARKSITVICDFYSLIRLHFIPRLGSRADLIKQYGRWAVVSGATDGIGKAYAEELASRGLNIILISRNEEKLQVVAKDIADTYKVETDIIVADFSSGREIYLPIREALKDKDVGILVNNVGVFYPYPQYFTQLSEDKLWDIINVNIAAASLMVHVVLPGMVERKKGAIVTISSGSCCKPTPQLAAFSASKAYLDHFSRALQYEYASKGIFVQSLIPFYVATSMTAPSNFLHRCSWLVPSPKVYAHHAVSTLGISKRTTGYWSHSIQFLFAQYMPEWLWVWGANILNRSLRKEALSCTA
Experimental: as §1, §2, §3, §4, §5, §6, §7, §8, §9, §10, §11, §12

SMARCA4 = biological target: T3, SMARCA4 (Homo sapiens, UniProt P51532); conditions: IMP-2586 labelling vs DMSO, 30 nM, 10 min, HEK293T (Table S4, Fig.5c)
T3 construct: endogenous in cells; host or cells: HEK293T
T3 sequence (P51532 whole entry): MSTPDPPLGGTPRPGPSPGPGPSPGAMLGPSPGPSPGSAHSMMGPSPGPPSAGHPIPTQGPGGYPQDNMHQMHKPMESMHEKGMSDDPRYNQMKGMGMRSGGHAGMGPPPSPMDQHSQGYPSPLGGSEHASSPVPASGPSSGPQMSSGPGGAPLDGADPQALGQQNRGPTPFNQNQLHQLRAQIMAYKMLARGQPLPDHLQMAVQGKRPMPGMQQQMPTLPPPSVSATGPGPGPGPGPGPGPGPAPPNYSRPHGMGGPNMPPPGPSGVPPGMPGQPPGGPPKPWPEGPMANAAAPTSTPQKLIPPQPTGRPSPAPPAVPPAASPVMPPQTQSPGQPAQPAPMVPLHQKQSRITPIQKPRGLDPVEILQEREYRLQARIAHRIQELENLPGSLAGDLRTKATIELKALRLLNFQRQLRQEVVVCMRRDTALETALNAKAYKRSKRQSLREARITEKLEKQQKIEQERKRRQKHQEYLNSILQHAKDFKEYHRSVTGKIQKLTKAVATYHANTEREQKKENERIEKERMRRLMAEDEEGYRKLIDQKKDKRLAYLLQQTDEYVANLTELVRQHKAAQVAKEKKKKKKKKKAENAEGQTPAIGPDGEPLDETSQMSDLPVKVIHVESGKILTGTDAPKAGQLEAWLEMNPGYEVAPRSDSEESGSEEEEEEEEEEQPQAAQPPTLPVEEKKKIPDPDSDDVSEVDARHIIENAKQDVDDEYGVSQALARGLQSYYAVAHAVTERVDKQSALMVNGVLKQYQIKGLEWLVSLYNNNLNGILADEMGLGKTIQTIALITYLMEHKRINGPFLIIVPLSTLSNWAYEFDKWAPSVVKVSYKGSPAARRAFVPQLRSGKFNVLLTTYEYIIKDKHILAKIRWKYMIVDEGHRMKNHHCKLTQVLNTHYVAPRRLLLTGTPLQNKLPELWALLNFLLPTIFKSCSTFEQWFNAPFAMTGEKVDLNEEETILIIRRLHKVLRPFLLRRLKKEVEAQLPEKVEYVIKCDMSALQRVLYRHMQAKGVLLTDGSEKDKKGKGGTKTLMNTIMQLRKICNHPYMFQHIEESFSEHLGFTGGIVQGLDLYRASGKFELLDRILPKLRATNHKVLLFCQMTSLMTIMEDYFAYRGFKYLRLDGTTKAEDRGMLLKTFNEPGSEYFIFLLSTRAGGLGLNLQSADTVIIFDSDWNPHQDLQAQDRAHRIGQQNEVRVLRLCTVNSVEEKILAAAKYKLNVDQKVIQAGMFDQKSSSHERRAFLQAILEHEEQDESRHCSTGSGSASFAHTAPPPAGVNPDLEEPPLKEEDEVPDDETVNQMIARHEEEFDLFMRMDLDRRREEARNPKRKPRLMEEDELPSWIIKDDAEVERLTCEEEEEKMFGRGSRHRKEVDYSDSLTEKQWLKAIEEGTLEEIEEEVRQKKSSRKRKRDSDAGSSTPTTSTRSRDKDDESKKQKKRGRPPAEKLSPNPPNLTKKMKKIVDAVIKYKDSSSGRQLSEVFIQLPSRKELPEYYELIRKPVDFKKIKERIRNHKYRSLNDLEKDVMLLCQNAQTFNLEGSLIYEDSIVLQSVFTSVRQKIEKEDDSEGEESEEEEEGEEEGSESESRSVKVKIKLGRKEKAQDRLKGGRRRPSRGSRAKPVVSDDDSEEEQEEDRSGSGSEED
Experimental: as §1, §2, §3, §4, §5, §6, §7, §8, §9, §10, §11, §12

CAV1 = conditions: IMP-2586 labelling vs DMSO, 30 nM, 10 min, HEK293T (Table S4, Fig.5c)
Experimental: as §1, §2, §3, §4, §5, §6, §7, §8, §9, §10, §11, §12

TMEM263 = biological target: T4, TMEM263 (Homo sapiens, UniProt Q8WUH6); conditions: IMP-2586 labelling vs DMSO, 30 nM, 10 min, HEK293T (Table S4, Fig.5c)
T4 construct: endogenous in cells; host or cells: HEK293T
Experimental: as §1, §2, §3, §4, §5, §6, §7, §8, §9, §10, §11, §12

RPL23A = biological target: T5, RPL23A (Homo sapiens, UniProt P62750); conditions: IMP-2586 labelling vs DMSO, 30 nM, 10 min, HEK293T (Table S4, Fig.5c)
T5 construct: endogenous in cells; host or cells: HEK293T
Experimental: as §1, §2, §3, §4, §5, §6, §7, §8, §9, §10, §11, §12

AURKAIP1 = biological target: T6, AURKAIP1 (Homo sapiens, UniProt Q9NWT8); conditions: IMP-2586 labelling vs DMSO, 30 nM, 10 min, HEK293T (Table S4, Fig.5c)
T6 construct: endogenous in cells; host or cells: HEK293T
Experimental: as §1, §2, §3, §4, §5, §6, §7, §8, §9, §10, §11, §12

RPL27 = biological target: T7, RPL27 (Homo sapiens, UniProt P61353); conditions: IMP-2586 labelling vs DMSO, 30 nM, 10 min, HEK293T (Table S4, Fig.5c)
T7 construct: endogenous in cells; host or cells: HEK293T
Experimental: as §1, §2, §3, §4, §5, §6, §7, §8, §9, §10, §11, §12

H2AFV;H2AFZ = conditions: IMP-2587 labelling vs DMSO, 30 nM, 10 min, HEK293T (Table S2, Fig.5a)
Experimental: as §1, §2, §3, §4, §5, §6, §7, §8, §9, §10, §11, §12

GET4 = biological target: T8, GET4 (Homo sapiens, UniProt Q7L5D6); conditions: IMP-2587 labelling vs DMSO, 30 nM, 10 min, HEK293T (Table S2, Fig.5a)
T8 construct: endogenous in cells; host or cells: HEK293T
T8 sequence (Q7L5D6 whole entry): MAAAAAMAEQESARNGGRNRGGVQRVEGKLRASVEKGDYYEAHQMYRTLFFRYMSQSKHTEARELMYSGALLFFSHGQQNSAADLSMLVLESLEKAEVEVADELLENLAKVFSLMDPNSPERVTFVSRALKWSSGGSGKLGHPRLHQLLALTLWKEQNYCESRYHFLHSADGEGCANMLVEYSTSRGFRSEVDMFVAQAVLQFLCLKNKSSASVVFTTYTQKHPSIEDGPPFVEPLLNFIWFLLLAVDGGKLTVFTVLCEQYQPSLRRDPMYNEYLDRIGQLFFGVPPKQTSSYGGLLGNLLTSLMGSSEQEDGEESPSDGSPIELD
Experimental: as §1, §2, §3, §4, §5, §6, §7, §8, §9, §10, §11, §12

UCHL1 = biological target: T9, UCHL1 (Homo sapiens, UniProt P09936); set-up: endogenous in cells; host or cells: HEK293T; conditions: IMP-2587 labelling vs DMSO, 30 nM, 10 min, HEK293T (Table S2, Fig.5a)
T9 sequence (P09936 1-223): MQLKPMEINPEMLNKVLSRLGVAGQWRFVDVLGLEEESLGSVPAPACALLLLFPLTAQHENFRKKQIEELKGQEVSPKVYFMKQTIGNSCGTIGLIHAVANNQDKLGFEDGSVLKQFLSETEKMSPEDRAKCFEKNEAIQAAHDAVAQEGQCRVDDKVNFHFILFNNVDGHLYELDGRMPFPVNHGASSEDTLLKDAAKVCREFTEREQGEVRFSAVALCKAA
Experimental: as §1
as §9, with “The resulting protein samples were separated according to the protocol in section 3.2.c.” left out, “pull-down) […]” for “pull-down)”

CLPTM1 = biological target: T10, CLPTM1 (Homo sapiens, UniProt O96005); conditions: compound 3 out-competition with IMP-2586 labelling, HEK293T (Table S5, Fig.5d)
T10 construct: endogenous in cells; host or cells: HEK293T
T10 sequence (O96005 whole entry): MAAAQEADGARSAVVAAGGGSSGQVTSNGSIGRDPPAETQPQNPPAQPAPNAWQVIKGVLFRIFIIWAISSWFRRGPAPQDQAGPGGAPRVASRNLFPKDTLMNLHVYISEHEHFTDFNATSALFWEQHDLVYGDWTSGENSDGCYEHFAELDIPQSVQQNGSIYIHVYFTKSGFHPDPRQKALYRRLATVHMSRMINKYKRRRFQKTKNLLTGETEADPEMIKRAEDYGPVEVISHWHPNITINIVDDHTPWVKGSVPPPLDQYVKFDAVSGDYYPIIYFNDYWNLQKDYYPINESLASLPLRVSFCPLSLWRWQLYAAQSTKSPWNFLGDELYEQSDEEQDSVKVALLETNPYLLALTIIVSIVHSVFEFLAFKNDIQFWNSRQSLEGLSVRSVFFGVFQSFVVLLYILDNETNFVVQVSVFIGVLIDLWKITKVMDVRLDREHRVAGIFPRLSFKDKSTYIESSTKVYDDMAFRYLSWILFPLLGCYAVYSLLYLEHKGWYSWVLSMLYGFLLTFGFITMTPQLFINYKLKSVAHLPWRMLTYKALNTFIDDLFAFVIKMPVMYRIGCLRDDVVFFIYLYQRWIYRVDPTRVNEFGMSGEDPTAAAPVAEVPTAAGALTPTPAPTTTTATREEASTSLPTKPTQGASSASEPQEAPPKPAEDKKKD
Experimental: as §1, §2, §3, §4, §5, §6, §7, §8, §9, §10, §11, §12

Structure (SMILES): N#CN1CC[C@@H](NC(=O)c2cc(-c3ccccc3Oc3ccc(N=[N+]=[N-])cc3)n[nH]2)C1 [IMP-2586]
- Difference (log2 fold change of enrichment) (ALYREF): -0.42
- Difference (log2 fold change of enrichment) (HSDL1): 1.22
- Difference (log2 fold change of enrichment) (SMARCA4): 0.52
- Difference (log2 fold change of enrichment) (CAV1; CAV1 (Caveolin)): -2.47
- Difference (log2 fold change of enrichment) (CAV1; CAV1 (Caveolin-1)): -1.61
- Difference (log2 fold change of enrichment) (TMEM263): -0.44
- Difference (log2 fold change of enrichment) (RPL23A): -0.57
- Difference (log2 fold change of enrichment) (AURKAIP1): 0.81
- Difference (log2 fold change of enrichment) (RPL27): -0.76

Structure (SMILES): C#Cc1cccc(-c2cc(NC(=O)CC3CCN(C#N)C3)on2)c1 (stereo not shown) [IMP-2587]
- Difference (log2 fold change of enrichment) (H2AFV;H2AFZ): 0.65
- Difference (log2 fold change of enrichment) (GET4): 0.76
- Difference (log2 fold change of enrichment) (UCHL1): 0.76

- Difference (log2 fold change of enrichment) (CLPTM1): -1.18
Structure (SMILES): N#CN1CC[C@@H](NC(=O)c2cc(-c3ccccc3Oc3ccccc3)n[nH]2)C1 [compound 3, reference compound]
